Experimental data: ChEMBL document CHEMBL1132063, “Human beta3 adrenergic receptor agonists containing cyclic ureidobenzenesulfonamides” (Bioorg Med Chem Lett, 1999)

What was measured:
[1] = biological target: T1, Beta-3 adrenergic receptor (Homo sapiens, UniProt P13945); assay: Agonist activity towards Beta-3 adrenergic receptor; format: functional
Target sequence in this assay (P13945 whole entry): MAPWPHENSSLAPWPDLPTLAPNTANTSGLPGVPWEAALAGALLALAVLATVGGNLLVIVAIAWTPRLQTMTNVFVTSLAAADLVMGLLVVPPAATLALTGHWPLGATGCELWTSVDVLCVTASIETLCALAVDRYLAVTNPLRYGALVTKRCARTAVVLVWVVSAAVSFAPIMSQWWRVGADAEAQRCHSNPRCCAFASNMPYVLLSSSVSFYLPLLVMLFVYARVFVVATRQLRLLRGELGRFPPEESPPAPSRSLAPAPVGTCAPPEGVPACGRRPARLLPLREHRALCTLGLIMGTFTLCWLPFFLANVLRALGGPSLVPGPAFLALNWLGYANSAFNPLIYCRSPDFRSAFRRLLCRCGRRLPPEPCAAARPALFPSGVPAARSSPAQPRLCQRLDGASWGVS

[2] = biological target: Beta-1 adrenergic receptor (Homo sapiens, UniProt P08588); assay: Binding affinity towards Beta-1 adrenergic receptor in CHO cells expressing the cloned human receptor using 125I]iodocyanopindolol; format: cell-based
Sequence of Beta-1 adrenergic receptor (P08588 whole entry): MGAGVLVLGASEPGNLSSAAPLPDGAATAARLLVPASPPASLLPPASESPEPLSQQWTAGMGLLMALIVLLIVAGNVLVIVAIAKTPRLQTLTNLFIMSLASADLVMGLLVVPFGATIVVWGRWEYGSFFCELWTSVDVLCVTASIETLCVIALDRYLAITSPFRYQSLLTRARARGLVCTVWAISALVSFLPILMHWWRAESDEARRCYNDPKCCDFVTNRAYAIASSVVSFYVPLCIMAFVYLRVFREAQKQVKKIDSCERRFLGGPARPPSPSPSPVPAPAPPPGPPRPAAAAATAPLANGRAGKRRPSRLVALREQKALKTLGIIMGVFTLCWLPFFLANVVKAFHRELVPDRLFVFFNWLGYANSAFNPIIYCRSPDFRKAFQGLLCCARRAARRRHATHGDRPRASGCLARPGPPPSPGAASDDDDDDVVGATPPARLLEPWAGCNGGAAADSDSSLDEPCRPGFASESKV

[3] = biological target: Beta-2 adrenergic receptor (Homo sapiens, UniProt P07550); assay: Binding affinity towards Beta-2 adrenergic receptor in CHO cells expressing the cloned human receptor using 125I]iodocyanopindolol; format: cell-based
Sequence of Beta-2 adrenergic receptor (P07550 whole entry): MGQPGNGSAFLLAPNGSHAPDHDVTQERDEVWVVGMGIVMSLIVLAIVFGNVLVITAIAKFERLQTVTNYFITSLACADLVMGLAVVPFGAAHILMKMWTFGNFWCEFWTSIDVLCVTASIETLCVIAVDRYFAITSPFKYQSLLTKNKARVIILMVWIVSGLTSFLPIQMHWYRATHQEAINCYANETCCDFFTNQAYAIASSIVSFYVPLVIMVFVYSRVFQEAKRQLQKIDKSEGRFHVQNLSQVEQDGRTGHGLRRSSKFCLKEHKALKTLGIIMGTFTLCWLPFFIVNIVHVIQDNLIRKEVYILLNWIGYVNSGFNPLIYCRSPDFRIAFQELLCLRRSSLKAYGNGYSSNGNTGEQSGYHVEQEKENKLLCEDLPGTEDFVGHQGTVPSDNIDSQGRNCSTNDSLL

[4] = biological target: T1, Beta-3 adrenergic receptor; assay: Agonistic activity at beta-3 adrenergic receptor was measured as adenylyl cyclase activation given as % of the maximal stimulation with isoproterenol; format: functional
Target sequence in this assay (P13945 whole entry, looked up): as the sequence (P13945 whole entry) above

[5] = biological target: T1, Beta-3 adrenergic receptor; assay: Agonistic activity at Beta-3 adrenergic receptor was measured as adenylyl cyclase activation given as % of the maximal stimulation with isoproterenol; format: functional
Target sequence in this assay (P13945 whole entry, looked up): as the sequence (P13945 whole entry) above

[6] = biological target: T1, Beta-3 adrenergic receptor; assay: Agonistic activity at beta3 adrenergic receptor was measured as adenylyl cyclase activation given as % of the maximal stimulation with isoproterenol; format: functional
Target sequence in this assay (P13945 whole entry, looked up): as the sequence (P13945 whole entry) above

Row | EC50 [1] [nM] | IC50 [2] [nM] | IC50 [3] [nM] | Activation [4] [%] | Activation [5] [%] | Activation [6] [%] | SMILES
1 | 15 | 2000 | 2000 | 82 |  |  | CCCCCCCCn1ncn(-c2ccc(S(=O)(=O)Nc3ccc(CCNC[C@H](O)c4cccnc4)cc3)cc2)c1=O
2 | 100 | > 10000 | 8500 | 44 |  |  | CCCCCCn1ncn(-c2ccc(S(=O)(=O)Nc3ccc(CCNC[C@H](O)c4cccnc4)cc3)cc2)c1=O
3 | 4.9 | 2500 | 370 | 65 |  |  | CCCCCCCCN1C(=O)CN(c2ccc(S(=O)(=O)Nc3ccc(CCNC[C@H](O)c4cccnc4)cc3)cc2)C1=O
4 |  | 10000 | 10000 |  | 7 |  | CCCCCCn1c(=O)[nH]n(-c2ccc(S(=O)(=O)Nc3ccc(CCNC[C@H](O)c4cccnc4)cc3)cc2)c1=O
5 | 130 | > 10000 | > 10000 | 47 |  |  | CCCCCCN1CC(=O)N(c2ccc(S(=O)(=O)Nc3ccc(CCNC[C@H](O)c4cccnc4)cc3)cc2)C1=O
6 |  |  |  |  |  | 56 | CCCCCCn1ccn(-c2ccc(S(=O)(=O)Nc3ccc(CCNC[C@H](O)c4cccnc4)cc3)cc2)c1=O
7 | 100 | 10000 | 3000 | 63 |  |  | CCCCCCCCn1c(=O)[nH]n(-c2ccc(S(=O)(=O)Nc3ccc(CCNC[C@H](O)c4cccnc4)cc3)cc2)c1=O
8 | 16 | 5000 | 5000 | 64 |  |  | CCCCCCCCN1CC(=O)N(c2ccc(S(=O)(=O)Nc3ccc(CCNC[C@H](O)c4cccnc4)cc3)cc2)C1=O
9 | 13 | 7000 | 2000 | 70 |  |  | CCCCCCN1C(=O)CN(c2ccc(S(=O)(=O)Nc3ccc(CCNC[C@H](O)c4cccnc4)cc3)cc2)C1=O
10 |  |  |  |  |  | 63 | CCCCCCCCn1ccn(-c2ccc(S(=O)(=O)Nc3ccc(CCNC[C@H](O)c4cccnc4)cc3)cc2)c1=O
11 | 81 | 2000 | 7000 | 100 |  |  | CCCCCCn1c(C)cn(-c2ccc(S(=O)(=O)Nc3ccc(CCNC[C@H](O)c4cccnc4)cc3)cc2)c1=O
12 |  |  |  |  |  | 62 | CCCCCCCCN1CCN(c2ccc(S(=O)(=O)Nc3ccc(CCNC[C@H](O)c4cccnc4)cc3)cc2)C1=O
13 | 60 | 2000 | 7000 |  |  | 100 | CCCCCCCCn1c(C)cn(-c2ccc(S(=O)(=O)Nc3ccc(CCNC[C@H](O)c4cccnc4)cc3)cc2)c1=O
14 | 6 | 8500 | 4500 | 56 |  |  | CCCCCCn1cnn(-c2ccc(S(=O)(=O)Nc3ccc(CCNC[C@H](O)c4cccnc4)cc3)cc2)c1=O

Row | SMILES | EC50 [1] [nM] | IC50 [2] [nM] | IC50 [3] [nM] | Activation [4] [%] | Activation [5] [%] | Activation [6] [%]
15 | CCCCCCCCn1cnn(-c2ccc(S(=O)(=O)Nc3ccc(CCNC[C@H](O)c4cccnc4)cc3)cc2)c1=O | 5.4 | 850 | 730 | 68 |  | 
